Calls of active or inactive are those of the source. The rule behind the calls is not given here.
Each molecule was assayed on DLD-1 viability, CellTiter-Glo ATP luminescence (assay: Dose-response reduction of DLD-1 viability by CellTiter-Glo luminescence, IC50 (AID 1117352)).

SMILES	IC50
CCCCCCCCCCCCCC[N+](C)(C)C	475 nM
CC(=O)[O][Hg][c]1ccccc1	736 nM
O=C(O)C1(C(=O)O)CCC1.[NH2-].[NH2-].[Pt+2]	> 20000 nM (inactive)
Cc1ccc([N+](=O)[O-])[c]2c1[O][Hg]2	1620 nM
O=C1[O][Bi][O]c2ccccc21	> 20000 nM (inactive)
OCCN1CCN(CC/C=C2/c3ccccc3Sc3ccc(C(F)(F)F)cc32)CC1	1470 nM

From PubChem BioAssay AID1117352
